This note sets out measurements from patent US10993984B2, “Terlipressin compositions and their methods of use” (Chiasma, Inc., priority 2016, dated 2021).

Bridge positions count the residues as written; N and C are the ends. Peptide text beside a SMILES is read from it.

A short description of this data set: in vivo. Particulars: dog, iv, 0.2 mg.

Description: The IV dosage was 0.2 mg per dog which is similar to the therapeutic dosage in humans. The oral dosage was 20 mg, and was selected by assuming a BA of about 1%. The concentration of both terlipressin and the active metabolite lysine vasopressin are shown as a function of time. The pharmacokinetic parameters of the active metabolite lysine-vasopressin were determined as well as terlipressin. Each Glypressin ampule contains 1 mg terlipressin acetate, which is equivalent to 0.85 mg terlipressin base. All doses in this study are expressed on the basis of terlipressin base.
All animals were fasted for at least 12 hours prior to dosing and through the first 4 hours of blood sample collection.
In the oral terlipressin capsule treatments, in order to acidify the stomach of the dog, approximately 30 minutes prior to dosing each animal received a single subcutaneous (SC) injection of pentagastrin (0.12 mg/mL) at a dose level of 0.006 mg/kg and a dose volume of 0.05 mL/kg. The same dogs can be used for more than one treatment, with a wash-out period of at least 1 week.
Blood was withdrawn at pre-determined times as follows:

`NCCCC[C@H](NC(=O)[C@@H]1CCCN1C(=O)[C@@H]1CSSC[C@H](NC(=O)CNC(=O)CNC(=O)CN)C(=O)N[C@@H](Cc2ccc(O)cc2)C(=O)N[C@@H](Cc2ccccc2)C(=O)N[C@@H](CCC(N)=O)C(=O)N[C@@H](CC(N)=O)C(=O)N1)C(=O)NCC(N)=O` [IV terlipressin, Terlipressin] (H-GGGCYFQNCPKG-NH2; disulfide 4-9) gave an AUC(0-inf) of 9.14 ng·h/mL, an AUC(0-t) of 9.13 ng·h/mL, a Cmax of 59.1 ng/mL and a half-life of 13.9 ± 1.32 min.
